According to the supplement of paper PMC11061612:

Tests used:
Experiment in all cases: combination Emax (second highest fraction inhibited in the dose matrix, 72 h); higher = more inhibition; extreme values may be limits of the assay
A673 (Ewing's Sarcoma) = tested on: A673 (Ewing's Sarcoma)
How it was run: (§1)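 Bliss excess equals the observed combination effect minus the expected value EA + EB − EA·EB, where EA and EB are the effects of each agent alone. Combination Emax is the second-highest inhibition within the matrix. Inhibition was scaled from CellTiter-Glo 2.0 luminescence, with 0 set by vehicle wells and 1 by blank wells, after 72 hours of two-drug dosing of cells plated in 1536-well plates.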

BE2-M17 (Neuroblastoma) = tested on: BE2-M17 (Neuroblastoma)
How it was run: as §1

BPH-1 (Non-Cancerous) = tested on: BPH-1 (Non-Cancerous)
How it was run: as §1

CAL-72 (Osteosarcoma) = tested on: CAL-72 (Osteosarcoma)
How it was run: as §1

[1] = tested on: Detroit562 (Head and Neck Carcinoma)
How it was run: as §1

[2] = tested on: ESS-1 (Other Solid Carcinomas)
How it was run: as §1

[3] = tested on: HH (T-Cell Non-Hodgkin's Lymphoma)
How it was run: as §1

[4] = tested on: HuCCT1 (Biliary Tract Carcinoma)
How it was run: as §1

[5] = tested on: HuH-7 (Hepatocellular Carcinoma)
How it was run: as §1

[6] = tested on: KMRC-20 (Kidney Carcinoma)
How it was run: as §1

[7] = tested on: MHH-CALL-2 (B-Lymphoblastic Leukemia)
How it was run: as §1

MPP-89 (Mesothelioma) = tested on: MPP-89 (Mesothelioma)
How it was run: as §1

[8] = tested on: NCI-H1568 (Lung Adenocarcinoma)
How it was run: as §1

NCI-H2052 (Mesothelioma) = tested on: NCI-H2052 (Mesothelioma)
How it was run: as §1

[9] = tested on: NCI-H209 (Small Cell Lung Carcinoma)
How it was run: as §1

[10] = tested on: NUGC-4 (Gastric Carcinoma)
How it was run: as §1

[11] = tested on: OVCAR-5 (Ovarian Carcinoma)
How it was run: as §1

[12] = tested on: SW1573 (Lung Adenocarcinoma)
How it was run: as §1

[13] = tested on: YAPC (Pancreatic Carcinoma)
How it was run: as §1

[14] = tested on: FTC-133 (Thyroid Gland Carcinoma)
How it was run: as §1

SMILES | combination Emax (A673 (Ewing's Sarcoma)) | combination Emax (BE2-M17 (Neuroblastoma)) | combination Emax (BPH-1 (Non-Cancerous)) | combination Emax (CAL-72 (Osteosarcoma)) | combination Emax [1] | combination Emax [2] | combination Emax [3] | combination Emax [4] | combination Emax [5] | combination Emax [6] | combination Emax [7] | combination Emax (MPP-89 (Mesothelioma)) | combination Emax [8] | combination Emax (NCI-H2052 (Mesothelioma)) | combination Emax [9] | combination Emax [10] | combination Emax [11] | combination Emax [12] | combination Emax [13] | combination Emax [14]
CN(C)CCCOc1ccc(-c2ccc3ncc4c(c3c2)n(C2CCOCC2)c(=O)n4C)cn1 [AZD0156] + O=C(c1cc(Cc2n[nH]c(=O)c3ccccc23)ccc1F)N1CCN(C(=O)C2CC2)CC1 [Olaparib] (first compound max 3 µM, partner max 3 µM) | 0.653 | 0.331 | 0.512 | 0.416 | 0.435 | 0.489 | 0.038 | 0.202 | 0.16 | 0.189 | 0.228 | 0.235 | 0.233 | 0.251 | 0.792 | 0.286 | 0.45 | 0.162 | 0.283 | 
C=CCn1c(=O)c2cnc(Nc3ccc(N4CCN(C)CC4)cc3)nc2n1-c1cccc(C(C)(C)O)n1 [AZD1775] + C1CN(CCC1(C(=O)N[C@@H](CCO)C2=CC=C(C=C2)Cl)N)C3=NC=NC4=C3C=CN4 [Capivasertib] (first compound max 3 µM, partner max 3 µM) | 0.526 | 0.906 | 0.929 | 0.845 | 0.92 | 0.949 | 0.567 | 0.741 | 0.471 | 0.711 | 0.869 | 0.685 | 0.765 | 0.518 | 0.873 | 0.574 | 0.572 | 0.572 | 0.591 | 
CN(CCO)CC[C@H](CSc1ccccc1)Nc1ccc(S(=O)(=O)NC(=O)c2ccc(N3CCC([C@@H](O)c4ccccc4-c4ccc(Cl)cc4)CC3)cc2)cc1S(=O)(=O)C(F)(F)F [AZD4320] + C1CN(CCC1(C(=O)N[C@@H](CCO)C2=CC=C(C=C2)Cl)N)C3=NC=NC4=C3C=CN4 [Capivasertib] (first compound max 1 µM, 7x7, partner max 3 µM) | 0.905 | 0.374 | 0.562 | 0.315 | 0.414 | 0.579 | 0.417 | 0.121 | 0.197 | 0.245 | 0.311 | 0.198 | 0.142 | 0.229 | 1 | 0.0873 | 0.17 | 0.296 | 0.0702 | 0.517
CN(CCO)CC[C@H](CSc1ccccc1)Nc1ccc(S(=O)(=O)NC(=O)c2ccc(N3CCC([C@@H](O)c4ccccc4-c4ccc(Cl)cc4)CC3)cc2)cc1S(=O)(=O)C(F)(F)F [AZD4320] + C=CCn1c(=O)c2cnc(Nc3ccc(N4CCN(C)CC4)cc3)nc2n1-c1cccc(C(C)(C)O)n1 [AZD1775] (first compound max 1 µM, partner max 1 µM) | 1 | 0.92 | 0.709 | 0.782 | 0.684 | 1 | 0.802 | 0.807 | 0.729 | 0.61 | 0.739 | 0.628 | 0.57 | 0.374 | 1 | 0.374 | 0.357 | 0.698 | 0.278 | 0.919
CN(CCO)CC[C@H](CSc1ccccc1)Nc1ccc(S(=O)(=O)NC(=O)c2ccc(N3CCC([C@@H](O)c4ccccc4-c4ccc(Cl)cc4)CC3)cc2)cc1S(=O)(=O)C(F)(F)F [AZD4320] + CN(C)CCCOc1ccc(-c2ccc3ncc4c(c3c2)n(C2CCOCC2)c(=O)n4C)cn1 [AZD0156] (first compound max 1 µM, 7x7, partner max 1 µM) | 0.929 | 0.258 | 0.474 | 0.332 | 0.168 | 0.478 | 0.274 | 0.251 | 0.154 | 0.113 | 0.391 | 0.236 | 0.313 | 0.201 | 1 | 0.174 | 0.164 | 0.128 | 0.129 | 0.44
CN(CCO)CC[C@H](CSc1ccccc1)Nc1ccc(S(=O)(=O)NC(=O)c2ccc(N3CCC([C@@H](O)c4ccccc4-c4ccc(Cl)cc4)CC3)cc2)cc1S(=O)(=O)C(F)(F)F [AZD4320] + Cn1cnc2c(F)c(Nc3ccc(Br)cc3Cl)c(C(=O)NOCCO)cc21 [Selumetinib] (first compound max 1 µM, 7x7, partner max 3 µM) | 0.971 | 0.852 | 0.784 | 0.51 | 0.637 | 0.851 | 0.3 | 0.571 | 0.55 | 0.261 | 0.965 | 0.399 | 0.444 | 0.262 | 1 | 0.766 | 0.613 | 0.575 | 0.194 | 0.74
COc1nnc2ccc(N3CCC(c4ccc(OCCN5CCN(C)C(=O)[C@H]5C)cc4)CC3)nn12 [AZD5153] + C=CCn1c(=O)c2cnc(Nc3ccc(N4CCN(C)CC4)cc3)nc2n1-c1cccc(C(C)(C)O)n1 [AZD1775] (first compound max 1 µM, partner max 1 µM) | 0.602 | 0.964 | 0.88 | 0.647 | 0.823 | 0.898 | 0.47 | 0.767 | 0.682 | 0.694 | 0.742 | 0.482 | 0.438 | 0.407 | 0.912 | 0.641 | 0.563 | 0.544 | 0.461 | 0.837
COc1nnc2ccc(N3CCC(c4ccc(OCCN5CCN(C)C(=O)[C@H]5C)cc4)CC3)nn12 [AZD5153] + CC1(C)CCC(CN2CCN(c3ccc(C(=O)NS(=O)(=O)c4ccc(NCC5CCOCC5)c([N+](=O)[O-])c4)c(Oc4cnc5[nH]ccc5c4)c3)CC2)=C(c2ccc(Cl)cc2)C1 [Venetoclax] (first compound max 1 µM, 7x7, partner max 1 µM) | 0.505 | 0.621 | 0.745 | 0.495 | 0.8 | 0.63 | 0.406 | 0.511 | 0.442 | 0.452 | 0.429 | 0.497 | 0.251 | 0.359 | 0.727 | 0.567 | 0.514 | 0.43 | 0.384 | 0.578
COc1cccc(OCCCN)c1-c1cc(Nc2cnc(C#N)cn2)n[nH]1 [Prexasertib] + C[C@@H]1COCCN1C2=NC(=NC(=C2)C3(CC3)[S@](=N)(=O)C)C4=C5C=CNC5=NC=C4 [AZD6738] (first compound max 1 µM, 7x7, partner max 10 µM) | 0.883 | 0.994 | 0.356 | 0.869 | 0.918 | 1 | 0.674 | 0.835 | 0.34 | 0.881 |  | 0.724 | 0.526 | 0.537 | 0.959 | 0.543 | 0.817 | 0.236 | 0.555 | 0.861
COc1cccc(OCCCN)c1-c1cc(Nc2cnc(C#N)cn2)n[nH]1 [Prexasertib] + Cc1cc2ncnn2cc1Nc1ncc2c(n1)n(C1CCOCC1)c(=O)n2C [AZD7648] (first compound max 1 µM, 7x7, partner max 10 µM) | 0.875 | 0.983 | 0.319 | 0.994 | 0.922 | 1 | 0.65 | 0.83 | 0.329 | 0.858 |  | 0.734 | 0.54 | 0.649 | 0.974 | 0.493 | 0.829 | 0.201 | 0.585 | 0.82
COc1cccc(OCCCN)c1-c1cc(Nc2cnc(C#N)cn2)n[nH]1 [Prexasertib] + O=C(c1cc(Cc2n[nH]c(=O)c3ccccc23)ccc1F)N1CCN(C(=O)C2CC2)CC1 [Olaparib] (first compound max 1 µM, 7x7, partner max 10 µM) | 0.923 | 0.958 | 0.497 | 0.81 | 0.922 | 1 | 0.542 | 0.844 | 0.3 | 0.893 |  | 0.714 | 0.481 | 0.589 | 0.965 | 0.415 | 0.693 | 0.241 | 0.597 | 0.915
CCc1c2c(nc3ccc(O)cc13)-c1cc3c(c(=O)n1C2)COC(=O)[C@]3(O)CC [SN-38] + CN(C)CCCOc1ccc(-c2ccc3ncc4c(c3c2)n(C2CCOCC2)c(=O)n4C)cn1 [AZD0156] (first compound max 0.3 µM, 7x7, partner max 1 µM) | 0.996 | 0.887 | 0.94 | 0.774 | 0.848 | 1 | 0.0821 | 0.508 | 0.149 | 0.827 |  | 0.632 | 0.474 | 0.837 | 1 | 0.287 | 0.567 | 0.794 | 0.51 | 0.959
